# Values of other authors as cited in Sander's compilation of Henry's law constants.
# Assay: Henry solubility constant Hcp at 298.15 K (mol/(m3 Pa))
# Conditions: cited value
# [1] = reference: Fogg and Sangster (2003)
# [2] = reference: Burkholder et al. (2015)
# [3] = reference: Burkholder et al. (2019)
# [4] = reference: Sander et al. (2006)
# [5] = reference: Sander et al. (2011)
# [6] = reference: Barcelo and Hennion (1997)
# [7] = reference: Petrasek et al. (1983)
# [8] = reference: Wania and Dugani (2003)
# [9] = reference: Plyasunov et al. (2006)
smiles,measurement,setting,value
C=CCO [2-propen-1-ol],Henry solubility constant Hcp,reference: Goldstein (1982),4.3
same,Henry solubility constant Hcp,reference: Pierotti et al. (1959),2
C1=Cc2cccc3cccc1c23 [acenaphthylene],Henry solubility constant Hcp,reference: Brockbank (2013),0.085
same,Henry solubility constant Hcp,[1],0.091
"ClCCCCCl [1,4-dichlorobutane]",Henry solubility constant Hcp,reference: Brockbank (2013),0.02
CCC(C)O (stereo unspecified) [2-butanol],Henry solubility constant Hcp,reference: Brockbank (2013),0.95
same,Henry solubility constant Hcp,[2],1.1
same,Henry solubility constant Hcp,[3],1.1
same,Henry solubility constant Hcp,[1],1
same,Henry solubility constant Hcp,[4],1.1
same,Henry solubility constant Hcp,[5],1.1
COc1nc(NC(C)C)nc(NC(C)C)n1 [prometone],Henry solubility constant Hcp,[6],110
ClBr [bromine chloride],Henry solubility constant Hcp,[2],0.0097
same,Henry solubility constant Hcp,[3],0.0097
same,Henry solubility constant Hcp,[4],0.0097
same,Henry solubility constant Hcp,[5],0.0097
"Cc1ccc(O)c(C)c1 [1-hydroxy-2,4-dimethylbenzene]",Henry solubility constant Hcp,reference: Brockbank (2013),3.5
same,Henry solubility constant Hcp,reference: Goldstein (1982),4.1
same,Henry solubility constant Hcp,reference: Howard (1989),16
same,Henry solubility constant Hcp,[7],17
CCC(C)(C)O [2-methyl-2-butanol],Henry solubility constant Hcp,reference: Brockbank (2013),0.65
CCCCC(=O)CC [3-heptanone],Henry solubility constant Hcp,reference: Brockbank (2013),0.072
c1ccc2c(c1)-c1cccc3cccc-2c13 [benzo[jk]fluorene],Henry solubility constant Hcp,reference: Brockbank (2013),0.7
same,Henry solubility constant Hcp,[1],0.54
same,Henry solubility constant Hcp,[7],0.99
CC(C)COC=O [(2-methylpropyl)-methanoate],Henry solubility constant Hcp,reference: Brockbank (2013),0.016
CCCCCCCCO [1-octanol],Henry solubility constant Hcp,reference: Brockbank (2013),0.34
C[Si](Cn1cncn1)(c1ccc(F)cc1)c1ccc(F)cc1 [flusilazole],Henry solubility constant Hcp,[6],27
"C1=CCC=CC1 [1,4-cyclohexadiene]",Henry solubility constant Hcp,reference: Brockbank (2013),0.0013
ClC1=C(Cl)[C@]2(Cl)C3C(Cl)C(Cl)CC3[C@@]1(Cl)C2(Cl)Cl (stereo partly specified) [chlordane],Henry solubility constant Hcp,[6],0.0011
"Brc1ccc(Oc2c(Br)cc(Br)cc2Br)c(Br)c1 [2,2',4,4',6-pentabromodiphenyl ether]",Henry solubility constant Hcp,[8],2.6
N#CCCCCC#N [hexanedinitrile],Henry solubility constant Hcp,[9],1500
Fc1ccccc1 [fluorobenzene],Henry solubility constant Hcp,reference: Brockbank (2013),0.0015
O=CC(=O)O [oxoethanoic acid],Henry solubility constant Hcp,[5],110
CCN(CC)c1ccccc1 [(diethylamino)-benzene],Henry solubility constant Hcp,reference: Brockbank (2013),0.067
c1ccc2[nH]ccc2c1 [indole],Henry solubility constant Hcp,reference: Howard and Meylan (1997),15
CCCN(CCC)N=O [N-nitrosodipropylamine],Henry solubility constant Hcp,reference: Mackay et al. (1995),1.6
Clc1ccccc1 [chlorobenzene],Henry solubility constant Hcp,reference: Brockbank (2013),0.0026
same,Henry solubility constant Hcp,reference: Goldstein (1982),0.0025
C1CCCCC1 [cyclohexane],Henry solubility constant Hcp,reference: Brockbank (2013),5.1e-05
same,Henry solubility constant Hcp,reference: Goldstein (1982),6.2e-05
FC(F)(F)C(F)(F)C(F)(F)C(F)(F)C(F)(F)C(F)(F)C(F)(F)F [hexadecafluoroheptane],Henry solubility constant Hcp,reference: Brockbank (2013),3e-09
CCOC(=O)CC [ethyl propanoate],Henry solubility constant Hcp,reference: Brockbank (2013),0.038
Cc1ccc2ccccc2c1 [2-methylnaphthalene],Henry solubility constant Hcp,reference: Brockbank (2013),0.02
same,Henry solubility constant Hcp,[1],0.018
same,Henry solubility constant Hcp,reference: Mackay et al. (1992b),0.02
CCCCCCO [1-hexanol],Henry solubility constant Hcp,reference: Brockbank (2013),0.76
C#CC(C)(C)NC(=O)c1cc(Cl)cc(Cl)c1 [propyzamide],Henry solubility constant Hcp,[6],0.052
CI [iodomethane],Henry solubility constant Hcp,reference: Brockbank (2013),0.002
same,Henry solubility constant Hcp,[2],0.002
same,Henry solubility constant Hcp,[3],0.002
same,Henry solubility constant Hcp,reference: Liss and Slater (1974),0.0017
same,Henry solubility constant Hcp,[4],0.002
same,Henry solubility constant Hcp,[5],0.002
"Clc1ccccc1-c1ccccc1Cl [2,2'-dichlorobiphenyl]",Henry solubility constant Hcp,reference: Murphy et al. (1983b),0.045
"COC(F)(F)C(Cl)Cl [2,2-dichloro-1,1-difluoro-1-methoxyethane]",Henry solubility constant Hcp,[1],0.0029
COC(=O)c1ccccc1O [2-hydroxybenzoic acid methyl ester],Henry solubility constant Hcp,reference: Brockbank (2013),1.6
C=C(C)C(=O)OC [methyl methacrylate],Henry solubility constant Hcp,reference: Brockbank (2013),0.029
CCCCCC#N [hexanenitrile],Henry solubility constant Hcp,[9],0.12
CC(C)OC(=O)Nc1cccc(Cl)c1 [chlorpropham],Henry solubility constant Hcp,[6],47
CCCCC [pentane],Henry solubility constant Hcp,reference: Brockbank (2013),7.2e-06
CCCCC(C)CC (stereo unspecified) [3-methylheptane],Henry solubility constant Hcp,reference: Brockbank (2013),2.6e-06
CCCCOC [methyl butyl ether],Henry solubility constant Hcp,reference: Brockbank (2013),0.0066
"OCC(F)(F)C(F)F [2,2,3,3-tetrafluoro-1-propanol]",Henry solubility constant Hcp,[2],1.4
same,Henry solubility constant Hcp,[3],1.4
same,Henry solubility constant Hcp,[5],1.4
CCNc1nc(NC(C)(C)C)nc(SC)n1 [terbutryn],Henry solubility constant Hcp,[6],7.6
"CC(C)(C)CO [2,2-dimethyl-1-propanol]",Henry solubility constant Hcp,reference: Brockbank (2013),0.3
"OCC(F)(F)C(F)(F)F [2,2,3,3,3-pentafluoro-1-propanol]",Henry solubility constant Hcp,[2],0.14
same,Henry solubility constant Hcp,[3],0.14
same,Henry solubility constant Hcp,[5],0.14
C1CCCCCCC1 [cyclooctane],Henry solubility constant Hcp,reference: Brockbank (2013),7.3e-05
CCSSCC [diethyl disulfide],Henry solubility constant Hcp,[2],0.0037
same,Henry solubility constant Hcp,[3],0.0037
CCCCI [1-iodobutane],Henry solubility constant Hcp,reference: Brockbank (2013),0.00069
CC(=O)C(C)C [3-methyl-2-butanone],Henry solubility constant Hcp,reference: Brockbank (2013),0.11
"C=C(Cl)Cl [1,1-dichloroethene]",Henry solubility constant Hcp,reference: Brockbank (2013),0.00031
same,Henry solubility constant Hcp,[2],0.00037
same,Henry solubility constant Hcp,[3],0.00037
same,Henry solubility constant Hcp,[1],0.0004
same,Henry solubility constant Hcp,reference: Goldstein (1982),0.00064
ClC(Cl)C(Cl)(Cl)Cl [pentachloroethane],Henry solubility constant Hcp,reference: Brockbank (2013),0.0042
same,Henry solubility constant Hcp,[3],0.0041
CN1CSC(=S)N(C)C1 [dazomet],Henry solubility constant Hcp,reference: MacBean (2012b),37000
CCCCCCC=O [heptanal],Henry solubility constant Hcp,reference: Brockbank (2013),0.034
O=[N+]([O-])c1ccc(O)cc1 [4-nitrophenol],Henry solubility constant Hcp,reference: Goldstein (1982),9.8
ClC1=C(Cl)[C@]2(Cl)[C@@H]3[C@@H]4C[C@@H]([C@H]5O[C@@H]45)[C@@H]3[C@@]1(Cl)C2(Cl)Cl [dieldrin],Henry solubility constant Hcp,[6],0.0088
c1ccc2ccccc2c1 [naphthalene],Henry solubility constant Hcp,reference: Brockbank (2013),0.021
same,Henry solubility constant Hcp,[1],0.022
same,Henry solubility constant Hcp,reference: Goldstein (1982),0.021
same,Henry solubility constant Hcp,reference: McCarty (1980),0.027
CCCCc1ccccc1 [butylbenzene],Henry solubility constant Hcp,reference: Brockbank (2013),0.00071
CNC=O [N-methylmethanamide],Henry solubility constant Hcp,reference: Brockbank (2013),1400
same,Henry solubility constant Hcp,[2],1400
same,Henry solubility constant Hcp,[3],1400
"C=COCC(F)(F)F [(2,2,2-trifluoroethoxy)-ethene]",Henry solubility constant Hcp,[1],0.00054
C=CC1(C)OC(=O)N(c2cc(Cl)cc(Cl)c2)C1=O (stereo unspecified) [vinclozoline],Henry solubility constant Hcp,[6],7.6
"O=COCC(F)(F)F [2,2,2-trifluoroethyl methanoate]",Henry solubility constant Hcp,[2],0.0054
same,Henry solubility constant Hcp,[3],0.0054
same,Henry solubility constant Hcp,[5],0.0054
CCCCCCCN [1-heptanamine],Henry solubility constant Hcp,reference: Brockbank (2013),0.28
CCCCCN [1-pentanamine],Henry solubility constant Hcp,reference: Brockbank (2013),0.43
CCI [iodoethane],Henry solubility constant Hcp,reference: Brockbank (2013),0.0015
same,Henry solubility constant Hcp,[1],0.0015
CCCOCCC [dipropyl ether],Henry solubility constant Hcp,reference: Brockbank (2013),0.0029
CC(C)c1nn(C(=O)NC(C)(C)C)c(=O)n1N [amicarbazone],Henry solubility constant Hcp,reference: MacBean (2012b),1.5e+07
CCCCN [1-butanamine],Henry solubility constant Hcp,reference: Brockbank (2013),0.54
same,Henry solubility constant Hcp,[2],0.56
same,Henry solubility constant Hcp,[3],0.56
"Brc1cc(Br)c(Oc2cc(Br)c(Br)cc2Br)cc1Br [2,2',4,4',5,5'-hexabromodiphenyl ether]",Henry solubility constant Hcp,[8],2.9
CC(=O)CC(C)C [4-methyl-2-pentanone],Henry solubility constant Hcp,reference: Brockbank (2013),0.069
same,Henry solubility constant Hcp,reference: Howard (1990),0.11
CCCCCCOC(C)=O [hexyl ethanoate],Henry solubility constant Hcp,reference: Brockbank (2013),0.02
CC(C)N(C(=O)CCl)c1ccccc1 [propachlor],Henry solubility constant Hcp,[6],0.9
CCCCC(=O)CCCC [5-nonanone],Henry solubility constant Hcp,reference: Brockbank (2013),0.04
C#CCCCCC [1-heptyne],Henry solubility constant Hcp,reference: Brockbank (2013),0.00018
